Laboratory results published in ChEMBL document CHEMBL1131796, “Design and synthesis of a novel synthetic NAPAP-penta-saccharide conjugate displaying a dual antithrombotic action” (Bioorg Med Chem Lett, 1999).

Assays:
[1] = molecular target: T1, Antithrombin-III (Homo sapiens, UniProt P01008); assay: (§1) Antithrombin III (ATIII)-mediated anti-Xa activity was determined
[2] = In vitro half life in rat; settings: in vivo
[3] = molecular target: Prothrombin (Homo sapiens, UniProt P00734); assay: In vitro anti-thrombin activity was determined
[4] = molecular target: T1, Antithrombin-III; assay: In vitro antithrombin III (ATIII)-mediated anti-Xa activity was determined
[5] = molecular target: T1, Antithrombin-III; assay: as §1; remark: listed apart in the source

T1 sequence (P01008 whole entry): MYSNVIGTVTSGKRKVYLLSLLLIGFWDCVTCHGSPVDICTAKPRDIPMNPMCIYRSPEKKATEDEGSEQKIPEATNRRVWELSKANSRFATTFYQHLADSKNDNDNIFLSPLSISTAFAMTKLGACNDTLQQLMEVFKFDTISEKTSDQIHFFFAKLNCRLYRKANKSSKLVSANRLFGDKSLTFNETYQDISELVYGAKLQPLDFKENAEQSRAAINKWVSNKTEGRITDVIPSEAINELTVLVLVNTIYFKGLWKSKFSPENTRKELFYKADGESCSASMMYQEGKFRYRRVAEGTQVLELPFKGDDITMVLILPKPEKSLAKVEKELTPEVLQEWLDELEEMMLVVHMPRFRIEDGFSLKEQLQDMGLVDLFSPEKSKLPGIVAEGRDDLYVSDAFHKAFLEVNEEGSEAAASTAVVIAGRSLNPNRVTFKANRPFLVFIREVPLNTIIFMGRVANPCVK

## N=C(N)c1ccc(C[C@@H](NC(=O)CNS(=O)(=O)c2ccc3ccccc3c2)C(=O)N2CCCCC2)cc1
[1]
  IC50: 570 nM

## CO[C@H]1O[C@H](COS(=O)(=O)O)[C@@H](O[C@@H]2O[C@@H](C(=O)O)[C@@H](O[C@H]3O[C@H](COS(=O)(=O)O)[C@@H](O[C@@H]4O[C@H](C(=O)O)[C@@H](O[C@H]5O[C@H](COS(=O)(=O)O)[C@@H](OCCOCCOCCOCCNC(=O)c6ccc(NC(=O)CSC[C@H](NS(=O)(=O)c7ccc8ccccc8c7)C(=O)NC(Cc7ccc(C(=N)N)cc7)C(=O)N7C=CCCC7)cc6)[C@H](OS(=O)(=O)O)[C@H]5OS(=O)(=O)O)[C@H](OC)[C@H]4OS(=O)(=O)O)[C@H](OS(=O)(=O)O)[C@H]3OS(=O)(=O)O)[C@H](OC)[C@H]2OS(=O)(=O)O)[C@H](OS(=O)(=O)O)[C@H]1OS(=O)(=O)O (stereo not given in full)
[2]
  half-life: 1.5 h
[3]
  IC50: 350 nM
[4]
  Activity: 885 U mg-1

## CO[C@@H]1OC(COS(=O)(=O)O)[C@H](O[C@@H]2OC(C(=O)O)[C@H](O[C@@H]3OC(COS(=O)(=O)O)[C@H](O[C@@H]4OC(C(=O)O)[C@H](O[C@@H]5OC(COS(=O)(=O)O)[C@@H](O)[C@@H](OS(=O)(=O)O)C5OS(=O)(=O)O)[C@@H](OC)C4OS(=O)(=O)O)[C@@H](OS(=O)(=O)O)C3OS(=O)(=O)O)[C@@H](OC)C2OS(=O)(=O)O)[C@@H](OS(=O)(=O)O)C1OS(=O)(=O)O (stereo not given in full)
[5]
  Activity: 1160 U mg-1
